Measured values as given in US7863335B2, “Non-antibiotic intervention of chlamydial infection” (The University of Medicine and Dentistry of New Jersey, priority 2004, dated 2011).
Where two headings read alike, the source gives them in different places.

What was measured:
L2 [1] = experiment: Dot blot analysis of MOMP, L2 growth in HeLa cells; assay type: cell-based, Chlamydia trachomatis
HeLa cells [2] = experiment: DNA synthesis ([methyl-3H]thymidine incorporation) in HeLa cells; assay type: cell-based, Human
Method: (§1) The lack of cytotoxic activity in GM6001 was further supported by measuring DNA synthesis. Subconfluent cells grown in 24 well plates were fed with medium (0.5 ml/well) containing indicated concentrations of GM6001 for 40 hours. 2 μl of [methyl-3H]thymidine (specific activity: 20 Ci/mmole, Moravek Biochemical, Brea, Calif.) was added into the culture and incubated for 2 hours. The amount of thymidine incorporated into DNA was determined as we previously described (3).

HeLa cells [3] = experiment: Cytotoxicity judged by cellular morphology of HeLa cells; assay type: cell-based, Human
L2 (biovar LGV) [4] = experiment: Dot blot analysis of MOMP, L2 growth in A549 cells; assay type: cell-based, Chlamydia trachomatis; conditions: 40 hours after infection, 1 μg/ml cycloheximide
Method: Infection of A549 cells and inhibitor treatment were carried out as described above. 40 hours after infection, cells were lysed in 200 μl of H2O, a 50 μl sample of the resulting EB/RB extract was blotted onto Zeta Probe membrane (Bio-Rad), and sequentially reacted with the L2 MOMP antibody described above, and horseradish peroxidase-conjugated rabbit anti-mouse IgG.

[5] = system: Salmonella Enterica Serovar Typhimurium; experiment: Intracellular growth of S. enterica in HeLa cells (colony-forming units); assay type: cell-based; conditions: 20 μM, 1.5 and 6 h, 50 μg/ml gentamycin
Method: To assess whether its intracellular growth is affected by the inhibitor, HeLa cells were infected with a fresh culture of S. enterica grown to stationary phase as previously described (16). After washes to remove free bacteria, the cells were cultured with medium containing 50 μg/ml gentamycin (to kill any residual free bacteria) plus or minus 20 μM GM6001 for 1.5 and 6 h. Gentamycin was then removed by washes. Intracellular bacteria were released by 0.1% Triton X-100, serially diluted and plated onto LB agar plates. After overnight incubation at 37° C., colony-forming units were scored.

Chlamydia = experiment: Titration of infectious EBs produced by infected HeLa cells; assay type: cell-based, Chlamydia trachomatis
Method: Inhibition of chlamydial growth was obtained when GM6001 and TAPI-0 was added to cultures at the end of the two hour attachment/entry period (FIGS. 1-3), a point where free unbound EBs had been removed by extensive washes. The entry-independent inhibition was also seen by titrating infectious EBs produced by infected HeLa cells (FIG. 6). […] At this point, EBs have already completed the entry phase and have differentiated into RBs in inclusions. Even when GM6001 treatment was started 24 h after infection, a point where the number of RBs peaks during the chlamydial developmental cycle, a 99% reduction in EB production was observed (FIG. 6).

[6] = system: Salmonella Enterica Serovar Typhimurium; experiment: Growth of S. enterica as free-living organism in liquid medium (OD600); assay type: cell-based
MoPn (biovar mouse) = experiment: Chlamydial DNA synthesis of MoPn (biovar mouse); assay type: cell-based, Chlamydia trachomatis; conditions: dose response
Method: We next tested whether GM6001 was also effective against the remaining two biovars of C. trachomatis. […] The effect of GM6001 on biovar mouse was determined by measuring chlamydial DNA synthesis with procedures that we previously detailed (1, 3).

L2 [7] = experiment: Pretreatment of host HeLa cells or EBs with GM6001, immunostaining of L2 growth; assay type: cell-based, Chlamydia trachomatis
Method: To address whether suppression of chlamydial growth resulted from inhibition of host or bacterial enzymes, we determined the effect of pretreatment of EB and host cells with a hydroxamate on chlamydial growth. HeLa cells were cultured for 2 h with medium containing 20 °μM GM6001 and washed 3 times with medium before they were infected with a regular EB stock. Likewise, an EB stock was also incubated with GM6001, washed, and added to untreated HeLa cells. As control, GM6001 (final concentration: 20 μM) was added into and maintained in the culture medium after the attachment/entry period.

[8] = system: strain 434/bu of serovar L2 (L2, biovar LGV); experiment: MOMP immunofluorescence of inclusion formation in L2-infected HeLa cells; assay type: cell-based, Chlamydia trachomatis
Method: Human cervical carcinoma HeLa cells grown on coverslips were exposed to an EB stock of strain 434/bu of serovar L2 (L2, biovar LGV) for 2 hours, washed to remove free EBs, and cultured in medium containing indicated concentrations of GM6001 plus 1 μg/ml cycloheximide, an inhibitor of eukaryotic protein synthesis which is commonly used to facilitate chlamydial growth. 40 hours later, cells were fixed with methanol, and reacted for 1 hour with a monoclonal antibody against the major outer membrane protein (MOMP) of L2. After three washes with PBS, coverslips were reacted with fluorescein isothiocyanate-conjugated goat anti-mouse IgG (Sigma, St. Louis, Mo.) for 30 min. After additional washes, coverslips were mounted onto glass slides and viewed with a Nikon Eclypse E1000 fluorescent microscope.

[9] = system: strain UW-3/Cx of serovar D (biovar trachomatis); experiment: Chlamydial lipopolysacharide immunostaining of inclusion formation, serovar D in HeLa cells; assay type: cell-based, Chlamydia trachomatis
L2 (biovar LGV) [10] = experiment: Live images (light microscope) of inclusion formation in L2-infected HeLa cells; assay type: cell-based, Chlamydia trachomatis; conditions: in both the presence and absence of cycloheximide
From the text: The inhibition of L2 growth by GM6001 could be viewed directly under a light microscope without immunostaining. Shown in FIG. 1C are images obtained from live cultures.

[11] = system: L. delbrueckii (ATCC 12315); experiment: Growth of L. delbrueckii in liquid culture (OD600); assay type: cell-based, Lactobacillus delbrueckii; conditions: 20 μM, hourly up to 5 h postinoculation
Method: (§2) An E. coli MG1655 colony was inoculated into 10 ml LB broth, which was then divided into 2 ml aliquots. After overnight culture, OD600 measurements were taken. An overnight L. delbrueckii (ATCC 12315) culture was diluted 1:100, and cultured in the presence or absence of 20 μM of GM 6001. OD600 values were measured hourly up to 5 h postinoculation.

A549 cells = experiment: DNA synthesis ([methyl-3H]thymidine incorporation) in A549 cells; assay type: cell-based, Human
Method: as §1

E. coli MG1655 = experiment: Growth of E. coli in LB broth (OD600); assay type: cell-based, Escherichia coli; conditions: overnight culture, concentrations indicated in FIG. 4A
Method: as §2

In the case of `CNC(=O)[C@H](Cc1c[nH]c2ccccc12)NC(=O)[C@H](CC(C)C)NC(=O)OC(C)(C)C` [GM6001 Negative Control, N-t-butoxycarbonyl-L-leucyl-L-tryptophan methylamide], the “chlamydial (L2) growth, MOMP dot blot” value (L2 [1]) is reported as “no detectable effect”, the “DNA synthesis (thymidine incorporated into DNA)” value (HeLa cells [2]) is reported as “no adverse effect” and the “adverse effect on morphology of HeLa cells” value (HeLa cells [3]; data not shown) is reported as “no adverse effect”.

`CNC(=O)[C@H](Cc1c[nH]c2ccccc12)NC(=O)[C@@H](CC(=O)NO)CC(C)C` [GM6001] was tested, and the “MOMP signal (L2 growth)” value (L2 (biovar LGV) [4]) was “no signal was detected”, the “growth of S. enterica inside HeLa cells (colony-forming units)” value [5] was “did not inhibit” and the inhibition at 20 µM (Chlamydia; Chlamydia, HeLa, 20 μM, added at the end of attachment/entry period, read-out: inhibition of EB production) was greater than 100%. The “inhibition of EB production” value (Chlamydia; added 8 h after infection) was “comparable inhibitory activity”, the “reduction in EB production” value (Chlamydia; treatment started 24 h after infection) was 99% and the “chlamydial (L2) growth, MOMP dot blot” value (L2 [1]) was “no MOMP signals”. For the same compound, the “growth of S. enterica in liquid medium” value [6] was “had no effect”, the “DNA synthesis (thymidine incorporated into DNA)” value (HeLa cells [2]) was “did not exhibit any inhibitory effect” and the “effect on cycloheximide-induced inhibition of DNA synthesis” value (HeLa cells [2]) was “no synergistic or additive effect”. The “inhibition of MoPn growth (chlamydial DNA synthesis)” value (MoPn (biovar mouse)) was “dose-response curve of GM6001 inhibition of MoPn growth was obtained”, the “chlamydial infection after pretreatment of EB stock” value (L2 [7]; EB stock incubated with GM6001, washed, added to untreated HeLa cells) was “completely ineffective” and the “chlamydial infection after pretreatment of host HeLa cells” value (L2 [7]; HeLa cells cultured 2 h with 20 μM GM6001, washed 3 times before infection) was “completely ineffective”. The “number of inclusions (L2 inclusion formation)” value ([8]; increasing concentrations of GM6001 plus 1 μg/ml cycloheximide, 40 hours) was “number of inclusions declined progressively”, the “inclusion formation by serovar D” value [9] was “efficiently suppressed inclusion formation” and the “inhibition of L2 growth / inclusion formation in live cultures” value (L2 (biovar LGV) [10]) was “effective against chlamydial infection”. The “growth of Lactobacillus delbrueckii (OD600)” value [11] was “did not show any effects”, the “DNA synthesis (thymidine incorporated into DNA)” value (A549 cells) was “did not exhibit any inhibitory effect” and the “effect on cycloheximide-induced inhibition of DNA synthesis” value (A549 cells) was “no synergistic or additive effect”. For the same compound, the “cytotoxic effects based on morphology” value (HeLa cells [3]; uninfected or L2-infected HeLa cells) was “no apparent cytotoxic effects”.

With `CC(C)C[C@H](CC(=O)NO)C(=O)N[C@@H](Cc1ccc2ccccc2c1)C(=O)N[C@@H](C)C(N)=O` [TAPI-0, N-(R)-[2-(Hydroxyaminocarbonyl)methyl]-4-methylpentanoyl-L-naphthylalanyl-L-alanine amide] the “growth of E. coli (OD600)” value (E. coli MG1655) was “did not show any effects” and the “inhibition of L2 infection (MOMP immunofluorescence)” value ([8]; at both 7.5 and 15 μM) was “strongly inhibited”.

In the case of `C[C@@H]1C[C@@H]([C@H](O)CC2CC(=O)NC(=O)C2)C(=O)[C@@H](C)C1` [cycloheximide], the “DNA synthesis (thymidine incorporated into DNA)” value (HeLa cells [2]; uninfected HeLa cells, 40 hours treatment) is reported as “effectively inhibited DNA synthesis activity” and the “DNA synthesis (thymidine incorporated into DNA)” value (A549 cells; uninfected A549 cells, 40 hours treatment) is reported as “effectively inhibited DNA synthesis activity”.
